Measurements as given in the NIST ThermoML archive (doi:10.1016/j.jct.2016.02.010).

Tests used:
[1] = Crystal; DTA
[2] = Molar enthalpy of transition or fusion; details: Crystal; DSC
[3] = molar heat capacity at constant pressure; details: 101.33 kPa, Liquid, Small sample (50 mg) DSC

CC(O)c1ccccc1 (centres undefined) [1-phenylethanol]
Details	Molar enthalpy of transition or fusion [kcal/mol]	Normal melting temperature [°C]
[1]	–	18.6
[2]	3.82	–

[3]
Details	molar heat capacity at constant pressure [J/K/mol]
297.15 K	262.4
298.15 K	263.1
299.15 K	263.9
300.15 K	264.6
301.15 K	265.1
302.15 K	265.8
303.15 K	267.1
304.15 K	267.9
305.15 K	268.5
306.15 K	269.4
307.15 K	269.8
308.15 K	271
309.15 K	271.7
310.15 K	272.4
311.15 K	273
312.15 K	273.7
313.15 K	274.7
314.15 K	275.1
315.15 K	275.7
316.15 K	276.4
317.15 K	277.3
318.15 K	278.2
319.15 K	279.1
320.15 K	279.6
321.15 K	280.3
322.15 K	281
323.15 K	281.5
324.15 K	282.2
325.15 K	283
326.15 K	283.9
327.15 K	284.4
328.15 K	284.8
329.15 K	285.4
330.15 K	286
331.15 K	286.7
332.15 K	287.3
333.15 K	288.1
334.15 K	288.9
335.15 K	289.6
336.15 K	290.2
337.15 K	290.6
338.15 K	291.2
339.15 K	292
340.15 K	292.5
341.15 K	293
342.15 K	293.6
343.15 K	294.2
344.15 K	295.2
345.15 K	295.7
346.15 K	296.3
347.15 K	296.9
348.15 K	297.5
349.15 K	298.1
350.15 K	298.3
351.15 K	298.8
352.15 K	299.2
353.15 K	300.7
354.15 K	300.8
355.15 K	301.7
356.15 K	302.8
357.15 K	303.4
358.15 K	303.8
359.15 K	303.9
360.15 K	304.5
361.15 K	305.3
362.15 K	305.7
363.15 K	306.1
364.15 K	307
365.15 K	307.7
366.15 K	308.4
367.15 K	308.6
368.15 K	308.9
369.15 K	309.5
370.15 K	310.3
371.15 K	311.1
372.15 K	311.6
373.15 K	311.8
